Activity calls are given as the source filed them.
Experiments:
[1] = NIH-3T3 fibroblast cytotoxicity, dose response, cytotoxicity control, cell-based, fluorescence, Alamar Blue, secondary assay (AID 2327); format: functional;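 note: NIH-3T3 mouse fibroblasts cultured with fluconazole at 8 µg/mL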
[2] = HeLa cell cytotoxicity, dose response, cytotoxicity control for MgcRacGAP inhibitor project (AID 624300); format: functional
[3] = target: Multidrug resistance protein CDR2 (Candida albicans (strain SC5314 / ATCC MYA-2876) (Yeast), UniProt P78595); assay: CaCDR2 efflux pump inhibitors in yeast, dose response, S. cerevisiae AD1-8u, singleplex, Cherry Pick1 hits (AID 588604); format: functional
Chain of Multidrug resistance protein CDR2 (P78595 whole entry): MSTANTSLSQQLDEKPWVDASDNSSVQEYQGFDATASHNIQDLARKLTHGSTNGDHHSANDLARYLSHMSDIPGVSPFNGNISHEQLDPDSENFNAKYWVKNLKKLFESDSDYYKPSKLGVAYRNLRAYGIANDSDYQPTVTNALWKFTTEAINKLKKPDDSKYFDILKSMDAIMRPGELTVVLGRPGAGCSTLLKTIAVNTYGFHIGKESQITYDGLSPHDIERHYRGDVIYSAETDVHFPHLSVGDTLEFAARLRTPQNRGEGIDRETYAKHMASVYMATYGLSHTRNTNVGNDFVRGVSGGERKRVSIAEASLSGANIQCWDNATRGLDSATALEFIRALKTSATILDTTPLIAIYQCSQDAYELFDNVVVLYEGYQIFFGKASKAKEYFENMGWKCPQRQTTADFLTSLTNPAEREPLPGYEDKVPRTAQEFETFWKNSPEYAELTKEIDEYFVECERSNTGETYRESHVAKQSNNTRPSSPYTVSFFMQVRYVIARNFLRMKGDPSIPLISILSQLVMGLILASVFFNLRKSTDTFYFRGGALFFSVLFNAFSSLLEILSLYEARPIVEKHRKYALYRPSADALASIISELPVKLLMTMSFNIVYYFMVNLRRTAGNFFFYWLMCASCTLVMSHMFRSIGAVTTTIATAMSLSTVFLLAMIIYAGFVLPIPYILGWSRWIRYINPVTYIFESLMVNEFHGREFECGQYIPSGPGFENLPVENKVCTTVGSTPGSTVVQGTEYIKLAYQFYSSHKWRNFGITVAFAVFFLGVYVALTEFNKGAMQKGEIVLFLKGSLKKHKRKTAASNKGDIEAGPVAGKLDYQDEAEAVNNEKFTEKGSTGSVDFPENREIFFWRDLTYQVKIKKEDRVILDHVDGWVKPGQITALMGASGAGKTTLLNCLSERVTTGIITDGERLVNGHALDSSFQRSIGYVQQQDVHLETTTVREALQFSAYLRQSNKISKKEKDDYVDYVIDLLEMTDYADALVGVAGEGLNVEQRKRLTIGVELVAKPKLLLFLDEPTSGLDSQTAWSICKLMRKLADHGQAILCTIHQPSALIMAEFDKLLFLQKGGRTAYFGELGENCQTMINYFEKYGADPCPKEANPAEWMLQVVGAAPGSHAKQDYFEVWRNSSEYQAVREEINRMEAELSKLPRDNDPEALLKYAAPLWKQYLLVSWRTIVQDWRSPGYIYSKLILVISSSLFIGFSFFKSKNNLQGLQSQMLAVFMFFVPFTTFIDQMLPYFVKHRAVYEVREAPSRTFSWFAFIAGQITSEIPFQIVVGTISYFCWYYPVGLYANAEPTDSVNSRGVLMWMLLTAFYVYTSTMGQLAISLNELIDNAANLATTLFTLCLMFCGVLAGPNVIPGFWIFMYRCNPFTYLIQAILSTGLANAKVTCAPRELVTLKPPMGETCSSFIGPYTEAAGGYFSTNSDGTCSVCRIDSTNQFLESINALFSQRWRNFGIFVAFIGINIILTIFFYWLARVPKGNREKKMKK

[4] = target: T1, Streptokinase A (Streptococcus pyogenes serotype M1, UniProt P10520); assay: S. pyogenes streptokinase expression inhibitors, potency, dose response, plasminogen activation absorbance, OD405 (AID 1914); format: functional, Streptococcus pyogenes M1 GAS;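 note: secreted streptokinase activity via plasminogen activation per viability signal from cell pellet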
T1 sequence (P10520 whole entry): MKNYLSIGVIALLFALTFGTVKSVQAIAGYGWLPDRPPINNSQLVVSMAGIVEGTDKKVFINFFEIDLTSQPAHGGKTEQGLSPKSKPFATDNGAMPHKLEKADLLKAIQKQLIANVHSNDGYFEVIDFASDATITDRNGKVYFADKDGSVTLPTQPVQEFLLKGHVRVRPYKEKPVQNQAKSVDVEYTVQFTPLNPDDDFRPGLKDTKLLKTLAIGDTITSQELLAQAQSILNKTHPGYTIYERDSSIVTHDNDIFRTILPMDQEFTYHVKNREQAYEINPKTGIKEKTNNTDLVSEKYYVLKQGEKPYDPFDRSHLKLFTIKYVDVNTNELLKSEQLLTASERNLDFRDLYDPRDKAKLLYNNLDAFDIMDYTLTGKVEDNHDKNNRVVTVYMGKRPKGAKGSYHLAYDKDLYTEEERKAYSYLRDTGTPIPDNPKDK

[5] = test system: HeLa; assay: Cytotoxicity counterscreen assay for transcriptional activators of heat shock protein 70 (Hsp70). [Related pubchem assays: 1203, 1252 ]; format: functional; settings: Homo sapiens;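 note: cells exposed to compound for 16 hours before readout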
[6] = HepG2 cell cytotoxicity, dose response, cytotoxicity control for Shn3 inhibitor project, CellTiter-Glo, cherry-picked (AID 624134); format: functional, cell-based
[7] = target: T2, Leucine aminopeptidase (Plasmodium falciparum 3D7, UniProt Q8IL11); assay: P. falciparum M17LAP inhibitors, primary screen, biochemical, fluorogenic H-Leu-NHMec substrate, 1536-well (AID 1619); format: functional
T2 sequence (Q8IL11 whole entry): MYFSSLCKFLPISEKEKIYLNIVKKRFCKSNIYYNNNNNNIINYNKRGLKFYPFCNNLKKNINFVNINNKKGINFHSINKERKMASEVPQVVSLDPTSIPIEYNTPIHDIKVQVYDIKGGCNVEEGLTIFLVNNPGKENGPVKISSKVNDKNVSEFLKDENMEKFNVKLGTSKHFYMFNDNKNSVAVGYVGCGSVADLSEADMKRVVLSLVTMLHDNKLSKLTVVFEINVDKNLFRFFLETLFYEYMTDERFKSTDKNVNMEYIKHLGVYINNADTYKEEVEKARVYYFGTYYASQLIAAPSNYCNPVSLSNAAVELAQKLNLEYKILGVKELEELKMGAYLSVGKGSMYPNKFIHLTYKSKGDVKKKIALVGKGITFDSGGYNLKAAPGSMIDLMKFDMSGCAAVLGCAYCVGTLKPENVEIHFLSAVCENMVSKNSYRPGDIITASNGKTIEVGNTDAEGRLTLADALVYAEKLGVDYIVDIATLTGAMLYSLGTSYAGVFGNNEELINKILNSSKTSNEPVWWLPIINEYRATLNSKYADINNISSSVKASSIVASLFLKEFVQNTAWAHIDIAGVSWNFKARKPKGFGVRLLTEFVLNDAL

[8] = target: T3, Ubiquitin-conjugating enzyme E2 N (Homo sapiens, UniProt P61088); format: functional;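 note: Dose-response confirmation in a TR-FRET assay detecting UBC13-driven polyubiquitin chain formation, inhibition measured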
T3 sequence (P61088 whole entry): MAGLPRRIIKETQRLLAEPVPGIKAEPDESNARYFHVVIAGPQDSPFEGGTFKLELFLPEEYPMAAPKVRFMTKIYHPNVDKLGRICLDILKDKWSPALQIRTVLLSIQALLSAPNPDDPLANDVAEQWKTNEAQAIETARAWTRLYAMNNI

[9] = target: Cyclin-dependent kinase 2 (Homo sapiens, UniProt P24941); format: functional;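 note: CDK2 measured as one member of a broad kinome profiling panel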
[10] = target: Testis-specific serine/threonine-protein kinase 1 (Homo sapiens, UniProt Q9BXA7); format: functional
[11] = target: Ephrin type-A receptor 2 (Homo sapiens, UniProt P29317); format: functional;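 note: EPHA2 tested as one member of a kinome-wide kinase panel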
[12] = target: Tyrosine-protein kinase Lyn (Homo sapiens, UniProt P07948); format: functional;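 note: lyn as one member of a kinase panel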
[13] = target: Serine/threonine-protein kinase PAK 4 (Homo sapiens, UniProt O96013); format: functional;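 note: value obtained within a kinome profiling panel in which PAK4 was one of the panel members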
[14] = target: Mitogen-activated protein kinase 9 (Homo sapiens, UniProt P45984); format: functional;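 note: value from a kinome panel profiling assay, MAPK9 panel entry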
[15] = target: Hepatocyte growth factor receptor (Homo sapiens, UniProt P08581); format: functional;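 note: kinase panel profiling across the kinome, with MET as the panel member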
[16] = target: RAC-alpha serine/threonine-protein kinase (Homo sapiens, UniProt P31749); format: functional;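 note: AKT1 affinity measured as one member of a kinome-wide kinase profiling panel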
[17] = target: Protein kinase C theta type (Homo sapiens, UniProt Q04759); assay: Navigating the Kinome. Panel member name: PRKCQ; format: functional
Chain of Protein kinase C theta type (Q04759 whole entry): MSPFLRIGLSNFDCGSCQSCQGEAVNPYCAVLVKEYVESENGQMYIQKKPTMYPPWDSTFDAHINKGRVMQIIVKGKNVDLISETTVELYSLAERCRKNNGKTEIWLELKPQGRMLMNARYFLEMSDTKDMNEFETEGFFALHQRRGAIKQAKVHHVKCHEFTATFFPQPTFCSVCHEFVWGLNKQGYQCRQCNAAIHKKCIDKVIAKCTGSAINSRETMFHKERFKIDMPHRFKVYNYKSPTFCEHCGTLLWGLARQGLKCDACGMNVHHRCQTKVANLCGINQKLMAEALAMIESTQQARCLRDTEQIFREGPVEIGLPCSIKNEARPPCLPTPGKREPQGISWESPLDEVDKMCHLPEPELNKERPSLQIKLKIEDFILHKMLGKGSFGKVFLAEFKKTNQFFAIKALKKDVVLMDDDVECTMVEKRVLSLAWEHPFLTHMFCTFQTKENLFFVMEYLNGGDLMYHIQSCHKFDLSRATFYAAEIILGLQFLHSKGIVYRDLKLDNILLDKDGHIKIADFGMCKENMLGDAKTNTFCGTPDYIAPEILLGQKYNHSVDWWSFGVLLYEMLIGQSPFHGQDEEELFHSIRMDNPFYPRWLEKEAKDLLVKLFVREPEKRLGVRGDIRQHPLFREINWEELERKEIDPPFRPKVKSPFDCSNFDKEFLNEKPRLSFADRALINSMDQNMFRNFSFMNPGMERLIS

[18] = target: Dual specificity tyrosine-phosphorylation-regulated kinase 1B (Homo sapiens, UniProt Q9Y463); assay: Navigating the Kinome. Panel member name: DYRK1B; format: functional
[19] = target: Serine/threonine-protein kinase TAO1 (Homo sapiens, UniProt Q7L7X3); format: functional
Chain of Serine/threonine-protein kinase TAO1 (Q7L7X3 whole entry): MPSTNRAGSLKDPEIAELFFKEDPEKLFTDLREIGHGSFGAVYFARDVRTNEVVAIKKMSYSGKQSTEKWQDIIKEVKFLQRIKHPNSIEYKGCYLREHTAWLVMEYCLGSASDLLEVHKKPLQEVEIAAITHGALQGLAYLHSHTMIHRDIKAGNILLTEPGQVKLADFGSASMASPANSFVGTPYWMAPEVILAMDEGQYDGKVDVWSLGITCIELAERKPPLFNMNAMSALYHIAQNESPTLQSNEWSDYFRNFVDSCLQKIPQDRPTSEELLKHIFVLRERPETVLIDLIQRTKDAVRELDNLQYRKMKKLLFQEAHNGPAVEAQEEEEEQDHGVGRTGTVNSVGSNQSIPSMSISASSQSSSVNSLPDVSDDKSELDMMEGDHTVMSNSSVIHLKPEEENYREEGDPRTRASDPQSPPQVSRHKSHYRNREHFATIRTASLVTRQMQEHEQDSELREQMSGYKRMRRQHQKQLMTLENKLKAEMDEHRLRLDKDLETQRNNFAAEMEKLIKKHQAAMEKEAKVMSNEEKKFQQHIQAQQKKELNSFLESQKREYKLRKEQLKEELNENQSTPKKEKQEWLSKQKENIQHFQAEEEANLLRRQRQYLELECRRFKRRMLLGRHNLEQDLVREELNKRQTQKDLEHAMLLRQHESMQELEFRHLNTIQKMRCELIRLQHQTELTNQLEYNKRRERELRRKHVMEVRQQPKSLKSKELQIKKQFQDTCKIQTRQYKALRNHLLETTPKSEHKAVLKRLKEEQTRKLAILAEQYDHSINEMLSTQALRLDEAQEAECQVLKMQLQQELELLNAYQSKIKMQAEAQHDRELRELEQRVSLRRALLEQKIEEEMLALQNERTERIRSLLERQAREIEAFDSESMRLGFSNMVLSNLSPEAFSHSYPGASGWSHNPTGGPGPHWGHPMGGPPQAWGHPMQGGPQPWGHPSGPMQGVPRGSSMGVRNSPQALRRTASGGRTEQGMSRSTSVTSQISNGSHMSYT

[20] = target: Serine/threonine-protein kinase DCLK1 (Homo sapiens, UniProt O15075); format: functional;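 note: affinity for DCLK1 (listed as DCAMKL1) measured as one member of a kinome-wide kinase profiling panel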
[21] = target: Focal adhesion kinase 1 (Homo sapiens, UniProt Q05397); format: functional;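 note: measured as one member of a kinome panel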
Chain of Focal adhesion kinase 1 (Q05397 whole entry): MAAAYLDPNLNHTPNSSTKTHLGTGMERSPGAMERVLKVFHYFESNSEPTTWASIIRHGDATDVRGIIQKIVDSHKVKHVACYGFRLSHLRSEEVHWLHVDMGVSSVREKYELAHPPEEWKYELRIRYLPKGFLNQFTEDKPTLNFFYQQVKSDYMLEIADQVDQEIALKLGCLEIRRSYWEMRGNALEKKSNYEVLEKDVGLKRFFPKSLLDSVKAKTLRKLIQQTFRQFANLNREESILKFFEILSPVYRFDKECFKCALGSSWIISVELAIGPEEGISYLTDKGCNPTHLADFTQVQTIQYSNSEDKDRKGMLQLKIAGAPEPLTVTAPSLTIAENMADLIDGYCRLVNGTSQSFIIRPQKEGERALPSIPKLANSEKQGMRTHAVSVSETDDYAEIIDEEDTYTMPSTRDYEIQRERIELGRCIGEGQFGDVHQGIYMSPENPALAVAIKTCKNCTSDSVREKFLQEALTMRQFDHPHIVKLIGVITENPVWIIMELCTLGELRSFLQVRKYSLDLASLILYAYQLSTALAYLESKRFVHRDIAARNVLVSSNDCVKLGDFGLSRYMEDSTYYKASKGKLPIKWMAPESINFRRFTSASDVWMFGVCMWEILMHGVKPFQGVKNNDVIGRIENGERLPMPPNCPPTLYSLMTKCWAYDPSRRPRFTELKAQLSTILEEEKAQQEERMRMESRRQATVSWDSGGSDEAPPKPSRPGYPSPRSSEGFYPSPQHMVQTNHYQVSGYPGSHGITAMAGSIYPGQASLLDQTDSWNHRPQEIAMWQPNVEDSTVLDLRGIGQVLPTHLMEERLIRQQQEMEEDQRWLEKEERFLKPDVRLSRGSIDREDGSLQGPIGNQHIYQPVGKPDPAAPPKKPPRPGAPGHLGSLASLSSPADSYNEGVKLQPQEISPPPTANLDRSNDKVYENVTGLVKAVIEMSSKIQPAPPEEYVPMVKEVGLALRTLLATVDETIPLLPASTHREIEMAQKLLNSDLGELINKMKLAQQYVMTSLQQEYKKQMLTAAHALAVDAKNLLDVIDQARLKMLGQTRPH

[22] = target: Dual specificity protein kinase CLK2 (Homo sapiens, UniProt P49760); format: functional
[23] = target: Epidermal growth factor receptor (Homo sapiens, UniProt P00533)
[24] = target: Leucine-rich repeat serine/threonine-protein kinase 2 (Homo sapiens, UniProt Q5S007); format: functional;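 note: value from a broad kinome-wide panel profiling study in which LRRK2 was one of the kinases tested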
[25] = target: Serine/threonine-protein kinase BRSK1 (Homo sapiens, UniProt Q8TDC3); format: functional;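 note: measured within a kinome-wide kinase panel, with the target listed as KIAA1811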
[26] = target: Serine/threonine-protein kinase D2 (Homo sapiens, UniProt Q9BZL6); format: functional;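 note: measured against PRKD2 as one member of a kinome-wide kinase profiling panel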
[27] = target: MAP kinase-activated protein kinase 3 (Homo sapiens, UniProt Q16644); format: functional;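 note: value comes from a kinome-wide profiling panel in which MAPKAPK3 is one of the panel members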
Chain of MAP kinase-activated protein kinase 3 (Q16644 whole entry): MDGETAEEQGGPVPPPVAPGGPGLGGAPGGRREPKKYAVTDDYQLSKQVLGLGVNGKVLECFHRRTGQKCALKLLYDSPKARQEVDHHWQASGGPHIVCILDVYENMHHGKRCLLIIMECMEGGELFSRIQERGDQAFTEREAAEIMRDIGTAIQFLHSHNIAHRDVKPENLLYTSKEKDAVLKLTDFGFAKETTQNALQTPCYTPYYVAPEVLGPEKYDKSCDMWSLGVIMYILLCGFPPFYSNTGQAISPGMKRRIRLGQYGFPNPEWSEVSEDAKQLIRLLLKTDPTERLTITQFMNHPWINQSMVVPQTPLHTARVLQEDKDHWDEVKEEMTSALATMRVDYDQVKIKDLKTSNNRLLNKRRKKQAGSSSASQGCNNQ

[28] = target: Dual specificity mitogen-activated protein kinase kinase 1 (Homo sapiens, UniProt Q02750); assay: Navigating the Kinome. Panel member name: MAP2K1; format: functional
Chain of Dual specificity mitogen-activated protein kinase kinase 1 (Q02750 whole entry): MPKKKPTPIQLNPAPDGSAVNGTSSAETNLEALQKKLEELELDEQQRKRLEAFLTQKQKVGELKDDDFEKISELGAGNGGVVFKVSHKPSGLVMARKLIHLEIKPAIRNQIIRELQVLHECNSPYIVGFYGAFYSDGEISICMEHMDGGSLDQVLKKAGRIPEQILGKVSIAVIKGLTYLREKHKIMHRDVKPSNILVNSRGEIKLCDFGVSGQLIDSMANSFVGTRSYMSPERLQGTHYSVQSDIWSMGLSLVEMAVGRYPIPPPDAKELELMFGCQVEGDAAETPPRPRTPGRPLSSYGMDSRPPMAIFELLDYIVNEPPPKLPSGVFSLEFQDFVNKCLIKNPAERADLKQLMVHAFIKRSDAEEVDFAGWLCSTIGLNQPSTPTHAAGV

[29] = target: MAP kinase-activated protein kinase 5 (Homo sapiens, UniProt Q8IW41); format: functional;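 note: measured as one member of a kinome panel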

## CN(C)S(=O)(=O)Oc1cccc(C(=O)Nc2ccc(Cl)c(Cl)c2)c1
[1]
  EC50: > 150 µM (inactive)

## Cc1ccc2[nH]c(/C(C#N)=C/c3ccc(O)c(O)c3)nc2c1
[2]
  CC50: 100 µM (active)
[3]
  EC50: 2.17 µM (active)

## COC(=O)C1CN(C#N)N(c2ccc(Cl)cc2)C12c1ccccc1-c1ccccc12 (centres undefined)
[4]
  EC50: 744 nM (active)
[5]
  CC50: 3.02 µM (active)
[6]
  AC50: 8.85 µM (active)

## O=C(NN1C(=O)CSC1=S)C(=O)NN1C(=O)CSC1=S
[7]
  IC50: 20.5 µM (active)
[8]
  IC50: > 20 µM (inactive)

## Nc1noc2cccc(-c3cccc(O)c3)c12
[9]
  Ki: > 7.94 µM (inactive)
[10]
  Ki: > 1.58 µM (inactive)
[11]
  Ki: > 3.16 µM (inactive)
[12]
  Ki: > 1.58 µM (inactive)
[13]
  Ki: > 5.01 µM (inactive)
[14]
  Ki: > 3.98 µM (inactive)
[15]
  Ki: > 12.6 µM (inactive)
[16]
  Ki: > 7.94 µM (inactive)
[17]
  Ki: 20 µM (active)
[18]
  Ki: 3.16 µM (active)
[19]
  Ki: > 25.1 µM (inactive)
[20]
  Ki: > 10 µM (inactive)
[21]
  Ki: > 39.8 µM (inactive)
[22]
  Ki: > 20 µM (inactive)
[23]
  Ki: > 2 µM (inactive)
[24]
  Ki: 3.16 µM (active)
[25]
  Ki: 7.94 µM (active)
[26]
  Ki: 7.94 µM (active)
[27]
  Ki: > 10 µM (inactive)
[28]
  Ki: 1.58 µM (active)
[29]
  Ki: > 1.58 µM (inactive)
